Data as given in US20040247703A1, “Composition for inhibiting glutamate-mediated neurotoxicity comprising ginsenoside Rg3 or ginsenoside Rh2” (priority 2002, published 2004).

Columns and labels:
[1] = system: white mouse hippocampus nerve cells; assay: MTT assay, survival of nerve cells against cytotoxicity by NMDA; type: cell-based; details: pretreated 1 minute, NMDA 10 minutes, MTT after 24 hours; 100 μg/ml GTS, 10 μM Rg3; FIG. 3
Protocol: 3-(4,5-dimethylthiazole-2-yl)-2,5-diphenyltetrazolium bromide (MTT) assay was carried out to determine the survival rate of cells against cytotoxicity by NMDA in nerve cells. Primarily cultured white mouse hippocampus nerve cells were cultured in a 24-well plate, to which a Neurobasal/B27 (Gibco, Grand Island N.Y.) medium including 0.5 mM L-glutamine, 25 μM glutamate, 25 μM 2-mercaptoethanol, 100 U/ml penicillin and 100 μg/ml streptomycin was added for 6-14 days. The cells were pretreated with 100 μg/ml GTS and 10 μM Rg3 using a Mg^2+ free HEPES buffered solution including 1 μM glycine for 1 minute and then treated with NMDA for 10 minutes. Thereafter, the medium was exchanged with the normal culture medium. Twenty-four hours after such treatment, the cells were treated directly with a 50 μl MTT solution in phosphate buffered saline (PBS) (1 mg/ml). Four hours after MTT treatment, the supernatant was removed, and the produced formazan was resolved in 100 μl dimethylsulfoxide (DMSO). Optical density at 560 nm was read using an automated spectrophotometric plate reader.

NMDA receptor [2] = assay: NMDA receptor-mediated Ca2+ influx by Ca2+-imaging technique (fura-2/AM) in cultured hippocampus nerve cells; type: cell-based, mouse; details: for % inhibition of NMDA receptor-mediated [Ca^2+]i infulx: cultured mouse hippocampus nerve cell; for inhibition effect for NMDA receptor activity, screening of pure 20(S) compounds, in words: 9 kinds of 20(S) compounds, FIG. 5; for NMDA receptor-mediated Ca^2+ influx inhibition, comparison of isomer forms, in words: Table 1 comparison of 20(S)-form with mixture of S-form and R-form
Protocol: (§1) Hippocampus nerve tissues were separated from an 18-day-old fetus to 1-day-old newborn white mouse using a dissection microscope. The tissues were treated with Leibovitz L-15 medium (Gibco, Grand Island, N.Y.) including 0.05% papain at 37° C. for 20 minutes. Then, the solution was washed with Ca^2+ or Mg^2+ free Hank's Balanced Salt Solution (Gibco, Grand Island, N.Y.) several times, and the single hippocampus nerve cell was separated mechanically by adjusting the pore size of the Pasteur pipette. The cell was cultured on a cover slip that was treated with poly-L-lysine in a concentration of 1.5×10^5 cell/ml.
(§2) The cell was cultured in a culturing solution of Neurobasla/B27 (Gibco, Grand Island, N.Y.) to which 0.5 mM L-glutamine, 25 μM glutamate, 25 μM 2-mercaptoethanol, 100 U/ml penicillin and 100 μg/ml streptomycin were added. Half of the medium was replaced twice a week with a medium having no added glutamate. Cells that were cultured for 7 to 15 days were used in the experiment.
Fura-2/AM (Molecular probes: Eugene, Oreg.) of the acetoxymethyl-ester form was used as a fluorescent Ca^2+ label. The hippocampus nerve cell was primarily incubated with 5 μM fura-2/AM and 0.001% Pluronic F-127 in HEPES buffer solution (unit mM: 150 NaCl, 5 KCl, 1 MgCl2,2 CaCl2,10 HEPES, 10 glucose, pH 7.4) at room temperature for 40 to 60 minutes and then washed with the HEPES buffer solution several times. After stabilizing the cell for 10 minutes, the change in intracellular Ca ion concentration was determined using an inverted microscope.
Specifically, the cell was exposed selectively to the excitation wavelengths (340 nm and 380 nm) from a xenon arc lamp by a computer-controlled filter wheel (Sutter Instruments, CA). Data was obtained every 2 seconds and a shutter was placed at the light-exposed portion so as to prevent any photo-toxicity on the cell. Emitter fluorescence light, which passed through a 515 nm long-pass filter, reached a cooling CCD camera. The ratios of intensity (340/380 nm) were converted to intracellular free Ca^2+ concentration ([Ca^2+]i) by digital fluorescence analyzer. Analysis of all image data was performed using Universal Imaging software (West Chester, Pa.).
Method for screening NMDA receptor inhibitor via NMDA receptor activity in a hippocampus nerve cell was performed by a Ca^2+-imaging technique using a Ca-dependent dye, fura-2/AM, as explained in Example 2.
Therefore, the system was used in the NMDA receptor inhibitor screening of ginseng components.
As stated above, the experiments of FIGS. 2A to 2C were to determine Ca^2+ influx caused by NMDA activity, when NMDA was administered to the cultured hippocampus nerve cell (5˜10 seconds), by using the Ca^2+-imaging technique. […]

NMDA receptor [3] = assay: NMDA receptor-mediated membrane current by whole-cell patch-clamp in hippocampus nerve cells; type: cell-based, mouse; details: 10 μM; FIG. 2D
Protocol: as §1
as §2, with “Cells that were cultured for 7 to 15 days were used in the experiment.” left out
Whole-cell voltage-clamp recordation was carried out using a perforated patch-clamp method. […] After 10 minutes, the membrane current was determined. […]
As a solution that allows only the monovalent ion to pass the membrane to produce an electric current, Nystatin stock solution of 25 mg/ml was diluted into a concentration of 250 μg/ml and added to the internal solution. […] The membrane voltage was recorded using an EPC-9 amplifier and Pulse/Pulsefit software (HEKA, Germany). […]

cultured cortical neuron = details: literature (Kim, Y. C. et al. 1998); cited from earlier work
hippocampus nerve cells = details: literature (Lim, J. H. et al. 1997); cited from earlier work

Row | Structure (SMILES) | cell viability against neurotoxicity caused by NMDA, in words [1] | % inhibition of NMDA receptor-mediated [Ca^2+]i infulx (NMDA receptor [2]; 1 μM) [%] | inhibition effect for NMDA receptor activity, screening of pure 20(S) compounds, in words (NMDA receptor [2]) | NMDA receptor-mediated Ca^2+ influx inhibition, comparison of isomer forms, in words (NMDA receptor [2]) | glutamate-induced neurotoxicity in cultured cortical neuron, in words (cultured cortical neuron) | other results
1 | N[C@H](CCCP(=O)(O)O)C(=O)O [D-APV, D(−)-2-amino-5-phosphono-pentanoic acid, reference compound] | effectively increase cell viability | – | – | – | – | Ca^2+ concentration ([Ca^2+]i) after NMDA application, in words (NMDA receptor [2]; FIG. 1, repeated NMDA applications): significantly decreased
2 | CC(C)=CCC[C@](C)(O)[C@H]1CC[C@]2(C)[C@@H]1[C@H](O)C[C@@H]1[C@@]3(C)CC[C@H](O[C@@H]4O[C@H](CO)[C@@H](O)[C@H](O)[C@H]4O[C@@H]4O[C@H](CO)[C@@H](O)[C@H](O)[C@H]4O)C(C)(C)[C@@H]3CC[C@]12C [20(S)-ginsenoside Rg3] | – | 30.4 ± 2.3 | most excellent inhibition effect | – | – | –
3 | CC(C)=CCC[C@](C)(O)[C@H]1CC[C@]2(C)[C@@H]1[C@H](O)C[C@@H]1[C@@]3(C)CC[C@H](O[C@@H]4O[C@H](CO)[C@@H](O)[C@H](O)[C@H]4O)C(C)(C)[C@@H]3CC[C@]12C [20(S)-ginsenoside Rh2] | – | 47.1 ± 4.3 | most excellent inhibition effect | superior effect to the mixture of S-form and R-form isomers | – | –
4 | CC(C)=CCC[C@](C)(O)[C@H]1CC[C@]2(C)[C@@H]1[C@H](O)C[C@@H]1[C@@]3(C)CC[C@H](O[C@@H]4O[C@H](CO)[C@@H](O)[C@H](O)[C@H]4O[C@@H]4O[C@H](CO)[C@@H](O)[C@H](O)[C@H]4O)C(C)(C)[C@@H]3CC[C@]12C [ginsenoside Rg3] | effectively increase cell viability | 31.2 ± 2.5 | – | equivalent efficacy regardless of an S-form or R-form isomer and their mixture | inhibited | NMDA receptor-mediated inward current, in words (NMDA receptor [3]): inhibits the inward current; NMDA receptor inhibition efficiency, screening of 10 ginsenosides, in words (NMDA receptor [2]; 10 μM, ginsenosides including isomers of C-20 position, FIGS. 2A and 2B): superior to those of other ginsenosides; IC50 (NMDA receptor [2]; Ca2+ influx on NMDA in cultured hippocampus nerve cell, read-out: IC50 of NMDA receptor inhibition (concentration dependence, FIG. 2C)): 3.8 µM
5 | CC(C)=CCC[C@](C)(O)[C@H]1CC[C@]2(C)[C@@H]1[C@H](O)C[C@@H]1[C@@]3(C)CC[C@H](O[C@@H]4O[C@H](CO)[C@@H](O)[C@H](O)[C@H]4O)C(C)(C)[C@@H]3CC[C@]12C [ginsenoside Rh2] | – | – | – | – | – | % inhibition of NMDA receptor-mediated [Ca^2+]i infulx (NMDA receptor [2]; 10 μM): 18.6 ± 2.7 %
6 | CC(C)=CCC[C@](C)(O[C@@H]1O[C@H](CO[C@@H]2O[C@H](CO)[C@@H](O)[C@H](O)[C@H]2O)[C@@H](O)[C@H](O)[C@H]1O)[C@H]1CC[C@]2(C)[C@@H]1[C@H](O)C[C@@H]1[C@@]3(C)CC[C@H](O[C@@H]4O[C@H](CO)[C@@H](O)[C@H](O)[C@H]4O[C@@H]4O[C@H](CO)[C@@H](O)[C@H](O)[C@H]4O)C(C)(C)[C@@H]3CC[C@]12C [ginsenoside Rb1, reference compound] | – | – | – | – | inhibited | death of hippocampus nerve cells during cerebral ischemia, in words (hippocampus nerve cells): inhibits death of hippocampus nerve cells
